Several values for one entry are separate records, joined by “and”; a condition that tells them apart may be missing. Equal entries are not always repeated. Where two headings read alike, the source gives them in different places.
Legend:
E. pyramidum venom [1] = system: E. pyramidum venom; set-up: species or system male CD-1 mice; conditions: mouse, in vivo, ip
[2] = system: venom SVMPs from six saw-scaled vipers; assay type: biochemical; conditions: read-out: IC50, neutralization of venom SVMP activity
[3] = system: PLA2 activity of fractionated E. ocellatus venom; assay type: biochemical
[4] = drug-only / antivenom-only control groups; conditions: 600 µg DMPS orally, 24 h
[5] = system: E. carinatus (India) venom; assay: coincubation model of envenoming; set-up: species or system male CD-1 mice; conditions: mouse, in vivo, iv
E. ocellatus venom [6] = system: E. ocellatus venom; set-up: species or system male CD-1 mice; conditions: mouse, in vivo, ip
[7] = rabbits and dogs, intravenous or oral administration for 10-26 weeks; cited from earlier work
[8] = system: venoms of E. pyramidum and E. carinatus; set-up: species or system mice; conditions: mouse, in vivo, iv
[9] = system: procoagulant activity of six Echis venoms; assay type: biochemical; conditions: for IC50: read-out: IC50, neutralization of venom-induced plasma clotting
[10] = system: E. ocellatus, E. pyramidum and E. carinatus venoms; set-up: species or system male CD-1 mice; conditions: mouse, in vivo, ip
E. ocellatus venom [11] = assay: neutralization of local hemorrhage; set-up: species or system male CD-1 mice; conditions: mouse, in vivo
E. ocellatus venom [12] = system: E. ocellatus venom; set-up: species or system mice; conditions: mouse, in vivo, iv
E. pyramidum venom [13] = assay: coincubation model of envenoming; set-up: species or system male CD-1 mice; conditions: mouse, in vivo, iv
[14] = humans, cited from earlier work
[15] = rats and rabbits, first 6 h, after oral dosing; cited from earlier work
[16] = system: venom-induced plasma clotting (Echis venoms, calcium-independent); assay type: biochemical; conditions: for IC50: read-out: IC50, venom-induced plasma clotting in the absence of calcium
[17] = system: serine protease activity of fractionated E. ocellatus venom; assay type: biochemical
[18] = system: E. carinatus (India) venom; set-up: species or system male CD-1 mice; conditions: mouse, in vivo, ip
[19] = system: E. ocellatus venom (Nigeria); assay: coincubation model of envenoming; set-up: species or system male CD1 mice; conditions: mouse, in vivo, iv
E. ocellatus venom [20] = assay: challenge and treat model using oral DMPS, E. ocellatus; set-up: species or system male CD-1 mice; conditions: mouse, in vivo
[21] = system: cleavage of recombinant human prothrombin by saw-scaled viper venom; assay type: biochemical, Echis; conditions: lower dose (150 µM)
[22] = system: Indian E. carinatus venom; assay type: biochemical; conditions: read-out: IC50, plasma assay

O=S(=O)(O)CC(S)CS (stereo not shown) [DMPS, 2,3-dimercapto-1-propanesulfonic acid]
survival for the duration of the experiment (24 h) (E. pyramidum venom [1]): two survived for the duration of the experiment (24 h)
IC50 [2]: 1.64 to 3.4 µM
inhibition of PLA2 activity [3]: unable to inhibit
signs of toxicity (survival, behavioral and post-mortem observations) [4]: did not display any signs of toxicity in mice
protection against lethality [5]: two deaths
time of death [5]: 89 min and 110 min
prolonged animal survival compared to the venom-only controls (E. ocellatus venom [6]): ~ 17 h
survival to the end of the experiment (24 h) (E. ocellatus venom [6]): two of the five experimental animals survived
time of death (E. ocellatus venom [6]): 12.6 to 24 h and 12.6 h
changes in the concentrations of iron or calcium [7]: no significant changes in the concentrations of iron or calcium
RBC morphology [8]: some protection
IC50 [9]: 1.18 to 27.7 µM
TAT concentrations, animals not protected by DMPS [10]: > 400 ng/mL
TAT concentrations, animals that survived for the duration of the experiment (average) [10]: ~ 200 ng/ml
hemorrhagic lesion size (average) (E. ocellatus venom [11]): 1.43 mm^2
RBC morphology (E. ocellatus venom [12]): fully rescued normal RBC morphology
protection against lethality (E. pyramidum venom [13]): complete protection
time to peak plasma concentrations ([14]; after ingestion): 3 to 4 h
time at which the drug can be detected in the plasma ([14]; after oral administration): 30 to 45 min
clinical half-life [14]: ~ 20 h
fraction excreted in the urine / eliminated within 6 h [15]: 85-89% and > 85%
IC50 [16]: 2.18 to 7.55 µM
inhibition of serine protease activity [17]: unable to inhibit
effect on lethality compared with the venom-only control [18]: slight delay in lethality
plasma thrombin-antithrombin (TAT) concentrations [19]: 170 to 252 ng/mL
survival [19]: survived until the end of the experiment (6 h)
echinocytes in blood films (E. ocellatus venom [20]): markedly reduced the number of echinocytes
prolonged animal survival compared to the venom-only controls (E. ocellatus venom [20]): ~ 10 h
survival at the end of the experiment (24 h) (E. ocellatus venom [20]): 2 of 5

O=C(O)[C@@H](S)[C@@H](S)C(=O)O [DMSA, dimercaptosuccinic acid]
IC50 [2]: 19.3 to 35.1 µM
IC50 [9]: 18.8 to 147 µM
plasma thrombin-antithrombin (TAT) concentrations [19]: 300 to 666 ng/mL
survival [19]: three of the five experimental animals survived

O=C(O)CN(CCN(CC(=O)O)CC(=O)O)CC(=O)O [EDTA]
IC50 [2]: 2.25 to 4.43 µM
protection of prothrombin against cleavage, comparison [21]: outperformed DMPS and DMSA
IC50 [22]: 2.18 µM
inhibition of venom activity in the plasma assay [9]: did not extensively inhibit venom activity
inhibition of venom-induced plasma clotting in the absence of calcium ([16]; no calcium): effective at inhibiting venom-induced plasma clotting
IC50 [16]: 4.89 to 253 µM

OCC(S)CS (stereo not shown) [dimercaprol]
IC50 [2]: 0.04 to 0.18 µM
protection of prothrombin against cleavage, comparison [21]: outperformed DMPS and DMSA
protection against lethality [5]: complete protection
survival to the end of the experiment (24 h) (E. ocellatus venom [6]): two experimental animals also survived
time of death (E. ocellatus venom [6]): 1.85 h and 2.08 h and 2.5 h
IC50 [9]: 0.14 to 1.36 µM
protection against lethality (E. pyramidum venom [13]): two deaths
IC50 [16]: 0.49 to 14 µM
plasma thrombin-antithrombin (TAT) concentrations [19]: 40 to 50 ng/mL
survival [19]: survived until the end of the experiment (6 h)

Source: paper PMC7116364 (Science translational medicine, 2020)
